Results as given in patent US11447495B2, “Substituted benzo[f]imidazo[1,5-a][1,4]diazepines as GABA(a) receptor modulators” (priority 2016, dated 2022).

Columns and labels:
[1] = Airway hyperresponsiveness (sRaw) to methacholine in ovalbumin asthma model; assay type: in vivo, ova s/c BALB/c mice; conditions: oral gavage, 100 mg/kg twice daily for 5 days, methacholine challenge
Protocol: Compounds described herein may reduce airway hyperresponsiveness in animal models of asthma. Therefore, mice may be sensitized three times with intra-peritoneal (i.p.) injections of 2 mg/kg/d of ovalbumin (Ova) emulsified in […] on days 0, 7 and 14 in a total volume of 100 μL. In addition, mice may be challenged intra-nasally (i.n.) with 1 mg/kg/d Ova for 5 days from days 23-27. Control mice may be sensitized with Ova and challenged with saline. The airway hyperresponsiveness measurements may be carried out with DSI's Buxco® FinePointe Non-Invasive Airway Mechanics (NAM) instrument consisting of a nasal chamber in combination with the thoracic chamber that allows the computation of specific airway resistance (sRaw). Treated conscious, spontaneously breathing Ova S/C mice may be exposed to aerosolized phosphate buffered saline (PBS) (for the baseline measurement) or methacholine (1.5625-12.5 mg/mL) for 1 minute and readings (sRaw) may be taken and averaged for 3 minutes after each nebulization.
Drug treatment protocol: Sterile solutions of compounds were prepared in 2% hydroxypropyl methylcellulose solution (Sigma-Aldrich, St. Louis, Mo.) and 2.5% polyethylene glycol (Sigma Aldrich, St. Louis, Mo.) for oral administration in a biological safety cabinet. A fine suspension was obtained by grinding the mixture with a mortar and pestle. Drugs were administered individually at 100 mg/kg by oral gavage (200 ul) with 20G gavage needles (Kent Scientific Corporation, Torrington Conn.) to groups of ova s/c BALB/c twice daily for 5 days during the ova challenge period. Mice received a single p.o. dose of the compounds just before airway parameter measurements. Compounds for i.p. injection were prepared in 10% DMSO, 40% propylene glycol, and 50% PBS and given as 100 ul injection. Mice were monitored daily after drug administration. Assessment of Airway hyper-responsiveness: Airway hyper-responsiveness to methacholine in conscious, spontaneously breathing animals was measured by DSI's Buxco® FinePointe Non-Invasive Airway Mechanics (NAM) instrument. Before measurements were taken, mice were acclimated to the chambers 15 minutes daily for 5 days. In addition, an ovalbumin sensitization and challenge protocol consists of randomized male BALB/c mice that were sensitized three times with intra-peritoneal (i.p.) injections of 2 mg/kg/d of ovalbumin (Ova) (Sigma-Aldrich, St. Louis, Mo.) emulsified in 2 mg of Alum (Imject Alum; Thermo Scientific, Pierce, Rockford, Ill.) on days 0, 7 and 14 in a total volume of 100 μL. The mice were then challenged intra-nasally (i.n.) with 1 mg/kg/d Ova for 5 days from days 23-27. Control mice were sensitized with Ova and challenged with saline. The chambers were also calibrated each time before data collection. Briefly, the nasal chamber in combination with the thoracic chamber allows the computation of specific airway resistance (sRaw). The FinePointe software computes specific airway resistance (sRaw) with all other ventilatory parameters derived by the NAM analyzer. Mice were exposed to aerosolized PBS (for the baseline measurement) or methacholine (1.5625-12.5 mg/mL) for 1 minute and readings were taken and averaged for 3 minutes after each nebulization. Data obtained were presented as sRaw versus the methacholine concentration (mg/mL) used to generate the aerosol. FIG. 5A-5F show compound effects on airway hyperresponsiveness. Specific airway resistance (sRaw) was measured at increasing dosages of methacholine by a DSI's Buxco FinePointe non-invasive airway mechanics instrument. Ova s/c BALB/c mice were administered all compounds via oral gavage, 100 mg/kg twice daily for 5 days. Data represent mean±SEM from 10 mice in each group. *, **, and *** indicate p<0.05, p<0.01, p<0.001 significance, respectively, compared to vehicle treated ova s/c BALB/c mice.

[2] = Microsomal stability, mouse liver microsomes; assay type: in vitro ADME; conditions: 10 μM compound
Protocol: The metabolic stability of compounds in vivo can be estimated with the stability of compounds in the presence of liver microsomes. Therefore, 4 μL of 1 mM DMSO solution of test compound at a final concentration of 10 μM were preincubated at 37° C. for 5 minutes on a digital heating shaking dry bath (Fischer scientific, Pittsburgh, Pa.) in a mixture containing 282 μL of water, 80 μL of phosphate buffer (0.5 M, pH 7.4) 20 μL of NADPH Regenerating System Solution A (BD Bioscience, San Jose, Calif.) and 4 μL of NADPH Regenerating System Solution B (BD Bioscience, San Jose, Calif.) in a total volume of 391.2 μL. Following preincubation, the reaction was initiated by addition of 8.8 μL of either human liver microsomes (BD Gentest, San Jose, Calif.) or mouse liver microsomes (Life technologies, Rockford, Ill.) at a protein concentration of 0.5 mg/mL. Aliquots of 50 μL were taken at time intervals of 0 (without microsomes), 10, 20, 30, 40, 50 and 60 minutes. Each aliquot was added to 100 μL of cold acetonitrile solution containing 1 μM of verapamil HCL as internal standard. This was followed by sonication for 10 seconds and centrifugation at 10,000 rpm for 5 minutes. 100 μL of the supernatant was transferred into Spin-X HPLC filter tubes (Corning Incorporated, NY) and centrifuged at 13,000 rpm for 5 minutes. The filtrate was diluted 100-fold and subsequently analyzed by LC-MS/MS with Shimadzu LCMS 8040, (Shimadzu Scientific Instruments, Columbia, Md.). The ratio of the peak areas of the internal standard and test compound was calculated for every time point and the natural log of the ratio were plotted against time to determine the linear slope (k). The metabolic rate (k*C0/C), half-life (0.693/k), and […] (V*k) were calculated, where k is the slope, C0 is the initial concentration of test compound, C is the concentration of microsomes, and V is the volume of incubation in μL per microsomal protein in mg. All experiments were repeated two time in triplicates.

Row | Structure (SMILES) | airway hyperresponsiveness (sRaw) [1] | MLM % remaining after 60 min [2] [%]
1 | C[C@H]1N=C(c2ccccc2F)c2cc(Br)ccc2-n2cnc(C(=O)O)c21 [GL-II-93, (R)-8-bromo-6-(2-fluorophenyl)-4-methyl-4H-benzo[f]imidazo[1,5-a][1,4]diazepine-3-carboxylic acid] | reduced airway hyperresponsiveness at one or multiple concentrations of methacholine | –
2 | CCOC(=O)c1ncn2c1[C@@H]1CCCN1C(=O)c1cc(O)ccc1-2 [RJ-02-50, ethyl (S)-7-hydroxy-9-oxo-11,12,13,13a-tetrahydro-9H-benzo[e]imidazo[5,1-c]pyrrolo[1,2-a][1,4]diazepine-1-carboxylate] | reduced airway hyperresponsiveness at one or multiple concentrations of methacholine | 91.1 ± 0.1
3 | O=C1c2cc(O)ccc2-n2cnc(-c3cnco3)c2[C@@H]2CCCN12 [RJ-03-30, (S)-7-hydroxy-1-(oxazol-5-yl)-11,12,13,13a-tetrahydro-9H-benzo[e]imidazo[5,1-c]pyrrolo[1,2-a][1,4]diazepin-9-one] | not able to alleviate airway hyperresponsiveness | 80.0 ± 0.3
4 | C#Cc1ccc2c(c1)C(c1ccccc1F)=N[C@H](C)c1c(C(=O)O)ncn1-2 [SH-053-2′F-R-CH3-Acid, (R)-8-ethynyl-6-(2-fluorophenyl)-4-methyl-4H-benzo[f]imidazo[1,5-a][1,4]diazepine-3-carboxylic acid] | reduced airway hyperresponsiveness at one or multiple concentrations of methacholine | 89.0 ± 0.3
